Read-outs that look alike come from different tables or passages of the source. Each block holds one compound with its values, some of them ahead of it. Where no end group is shown, it is not given here.
How the values were obtained:
non-mutated CFTR = molecular target: T1, non-mutated CFTR (Homo sapiens, UniProt P13569); assay: Ussing chamber short-circuit current (ion transport via CFTR); assay type: cell-based; conditions: for effect of Inh172 on cell potential: CFTR inh172 10 μM; for short circuit current differential after addition of tritoqualine: tritoqualine 10 μM
T1 construct: host or cells: human epithelial cells (called glandular / lacrimal gland epithelial cells) grown on Snapwell filters
T1 sequence (P13569 whole entry, change not shown): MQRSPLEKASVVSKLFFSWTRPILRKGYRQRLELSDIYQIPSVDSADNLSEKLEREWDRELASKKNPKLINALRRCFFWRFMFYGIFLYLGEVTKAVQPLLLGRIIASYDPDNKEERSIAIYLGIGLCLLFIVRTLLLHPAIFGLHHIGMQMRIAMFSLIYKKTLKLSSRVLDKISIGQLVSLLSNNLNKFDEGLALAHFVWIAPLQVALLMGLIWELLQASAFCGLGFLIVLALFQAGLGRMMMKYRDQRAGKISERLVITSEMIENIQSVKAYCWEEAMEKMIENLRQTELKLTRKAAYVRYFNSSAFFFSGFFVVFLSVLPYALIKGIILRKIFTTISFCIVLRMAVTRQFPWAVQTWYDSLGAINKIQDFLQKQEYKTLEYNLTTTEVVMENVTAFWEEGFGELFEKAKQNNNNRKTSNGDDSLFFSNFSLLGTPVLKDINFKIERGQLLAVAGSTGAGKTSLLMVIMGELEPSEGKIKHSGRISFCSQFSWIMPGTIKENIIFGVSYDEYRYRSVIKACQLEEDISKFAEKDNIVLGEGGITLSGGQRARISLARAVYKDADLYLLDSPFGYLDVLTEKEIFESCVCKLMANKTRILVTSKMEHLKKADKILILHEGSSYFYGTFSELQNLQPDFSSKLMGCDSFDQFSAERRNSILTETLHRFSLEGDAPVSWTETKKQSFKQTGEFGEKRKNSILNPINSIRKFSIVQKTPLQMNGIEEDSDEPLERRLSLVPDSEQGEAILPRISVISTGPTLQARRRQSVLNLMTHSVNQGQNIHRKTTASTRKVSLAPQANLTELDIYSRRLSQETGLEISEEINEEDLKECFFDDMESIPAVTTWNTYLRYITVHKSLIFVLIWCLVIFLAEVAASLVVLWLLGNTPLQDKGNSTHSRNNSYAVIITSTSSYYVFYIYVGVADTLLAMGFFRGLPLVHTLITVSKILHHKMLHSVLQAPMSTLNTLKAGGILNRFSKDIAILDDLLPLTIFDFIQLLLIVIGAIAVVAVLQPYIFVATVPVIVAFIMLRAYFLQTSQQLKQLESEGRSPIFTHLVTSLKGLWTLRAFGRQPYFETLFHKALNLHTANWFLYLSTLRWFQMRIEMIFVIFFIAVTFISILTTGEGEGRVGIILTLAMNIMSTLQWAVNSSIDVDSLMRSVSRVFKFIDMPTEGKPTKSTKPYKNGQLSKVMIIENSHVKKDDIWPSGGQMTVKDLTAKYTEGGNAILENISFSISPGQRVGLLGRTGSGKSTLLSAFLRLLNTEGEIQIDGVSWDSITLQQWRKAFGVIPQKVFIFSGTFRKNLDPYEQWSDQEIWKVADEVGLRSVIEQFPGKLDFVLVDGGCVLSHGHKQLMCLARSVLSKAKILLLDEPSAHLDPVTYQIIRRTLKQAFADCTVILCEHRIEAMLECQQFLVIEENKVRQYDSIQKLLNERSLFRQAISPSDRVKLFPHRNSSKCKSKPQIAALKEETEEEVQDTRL
Source text: To investigate this action on CFTR modulation, the inventors used the Ussing chamber method, invented by the Dane Hans H. Ussing in the late 1950s. This technique makes it possible to study ionic exchanges across an epithelium, as it allows the tissue of interest to be kept alive for a few hours under controlled conditions of temperature and medium. The positioning of the tissue between two half-chambers makes it possible to define an apical compartment (corresponding to the lumen of the organ) and a basolateral compartment (corresponding to the blood compartment) and to investigate exchanges between these two compartments via the tissue.
This technique is used as a routine and is particularly well adapted for a pharmacological approach to ionic transport and to search for molecules of therapeutic interest in the context of ionic secretions of epithelial cells. It consists in measuring the transepithelial current (known as the short-circuit current and noted Ise). Ise is expressed in amperes to unit area of the epithelium (Ise in μA/cm^2). The cells are grown on a porous filter for 10 to 15 days at the liquid-liquid interface and then air-liquid interface in order to mimic conditions close to in vivo. The transepithelial resistance is measured regularly when culturing. The higher this resistance is (several hundred ohms), the more the epithelial tissue is junctive, polarised and therefore tight. At the air (apical side)-liquid (basolateral side) interface the epithelial cells polarise and form a tight mat which can be investigated with the Ussing chamber technique. A system with 6 Physiology Instrument® cuvettes allowing 6 experiments in parallel has been used.
The inventors have used USSING chambers to analyse the activity of tritoqualine on CFTR of glandular epithelial cells.
Typical protocols used for human epithelial cells expressing non-mutated CFTR:
Measurement of short circuit current in the presence of amiloride (ENaC channel inhibitor, 100 μM) followed by addition of 10 μM of the tritoqualine molecule and then addition of CFTR inh172 (10 μM, CFTR inhibitor) followed by addition of UTP (100 μM, validates the experiment by activating the calcium-sensitive Cl transport).
Measurement of short circuit current in the presence of amiloride (100 μM) and forskolin (0.05 μM activator of intracellular cAMP) then addition of 10 μM of the tritoqualine molecule then addition of CFTRinh172 (10 μM) then addition of UTP (100 μM).
Measurement of the short circuit current in the presence of CFTR Inh172 (10 μM) then addition of tritoqualine and forskolin (0.05 μM) then addition of UTP.
The inventors have prepared a 100 μM stock solution in DMSO. The compounds have been aliquoted per 100 μL and stored at −20° C.
Tritoqualine has been added to USSING cells at a dose of 10 μM in non-mutated cells FIG. 5.

basophils = assay: Flow CAST basophil degranulation (CD63+/CCR3+ flow cytometry); assay type: cell-based, human
Source text: The inventors have used the Kit-Flow CAST (www.buhlmannlabs.ch/products-solutions/cellular-allergy/flow-cast/) to test the action of tritoqualine on the inhibition of basophil degranulation. The marker for degranulation is CD63. Upon basophil activation, CD63 markers bound to intracytoplasmic granules will fuse with the plasma membrane. They are then expressed on the cell surface: activated basophils thereby become CD63+. Further to CD63, another marker specific to basophils makes it possible to better target them, it is CCR3 (chemokine receptor 3). The latter is always expressed by this cell type. Thus, the degranulation of basophils is identified in the flow cytometry window as CD63+ and CCR3+.
In a first step 2 patients have been sampled. substance P has been tested at a dose of 10 μmoles.
After 30 minutes, degranulation in each of the tubes is around 7% as with the negative control.

NK 1 receptor = molecular target: T2, NK 1 receptor (Homo sapiens, UniProt P25103); assay: NK 1 receptor binding (method of Heuillet et al.); conditions: FIG. 8
T2 construct: human NK1 tachykinin receptor in the astrocytoma cell line U 373 MG; endogenous in cells; host or cells: U 373 MG human astrocytoma cells (per the cited method)
T2 sequence (P25103 whole entry): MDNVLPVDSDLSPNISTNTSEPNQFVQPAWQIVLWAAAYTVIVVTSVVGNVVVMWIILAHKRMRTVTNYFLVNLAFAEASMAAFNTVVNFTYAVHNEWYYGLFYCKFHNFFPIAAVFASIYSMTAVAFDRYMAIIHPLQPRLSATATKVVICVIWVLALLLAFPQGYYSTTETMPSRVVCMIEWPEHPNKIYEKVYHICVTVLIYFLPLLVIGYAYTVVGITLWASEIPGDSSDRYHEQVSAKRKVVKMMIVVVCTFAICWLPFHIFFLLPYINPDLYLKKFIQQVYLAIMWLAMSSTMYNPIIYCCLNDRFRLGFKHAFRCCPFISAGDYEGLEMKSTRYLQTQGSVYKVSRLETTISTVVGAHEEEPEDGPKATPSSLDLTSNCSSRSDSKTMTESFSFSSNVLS
Experimental: Tritoqualine has been tested on the NK 1 receptor according to the method described by Heuillet et al., Characterization of a human NK1 tachykinin receptor in the astrocytoma cell line U 373 MG. Heuillet E et al. Neurochem. 1993 March.

histidine decarboxylase = molecular target: T3, histidine decarboxylase (Homo sapiens, UniProt P19113); conditions: known anti-allergic activity; cited from earlier work
T3 sequence (P19113 1-662): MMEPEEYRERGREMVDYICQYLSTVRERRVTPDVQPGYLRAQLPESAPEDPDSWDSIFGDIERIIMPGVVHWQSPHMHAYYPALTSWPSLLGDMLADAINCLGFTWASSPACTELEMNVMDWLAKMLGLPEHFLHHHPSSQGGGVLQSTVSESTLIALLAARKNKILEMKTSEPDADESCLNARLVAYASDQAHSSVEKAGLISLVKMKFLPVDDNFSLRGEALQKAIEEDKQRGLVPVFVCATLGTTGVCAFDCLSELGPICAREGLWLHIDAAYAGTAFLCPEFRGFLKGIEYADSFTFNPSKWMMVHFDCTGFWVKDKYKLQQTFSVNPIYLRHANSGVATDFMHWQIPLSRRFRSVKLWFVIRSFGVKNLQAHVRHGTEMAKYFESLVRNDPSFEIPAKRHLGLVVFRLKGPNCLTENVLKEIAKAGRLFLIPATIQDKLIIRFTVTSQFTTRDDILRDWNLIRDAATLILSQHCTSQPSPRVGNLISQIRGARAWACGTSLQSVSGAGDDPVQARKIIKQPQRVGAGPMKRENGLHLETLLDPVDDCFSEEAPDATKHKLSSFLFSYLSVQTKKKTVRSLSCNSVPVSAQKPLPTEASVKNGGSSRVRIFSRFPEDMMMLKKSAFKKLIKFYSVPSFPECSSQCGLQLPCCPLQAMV

[1] = cited from earlier work

- effect of Inh172 on cell potential (non-mutated CFTR; non-mutated epithelial cells, apical side): completely blocks
- effect of Inh172 on cell potential (non-mutated CFTR; non-mutated lacrimal gland epithelial cells (second experiment)): completely blocks
Compound: O=C(O)c1ccc(C=C2SC(=S)N(c3cccc(C(F)(F)F)c3)C2=O)cc1 [Inh172]

- EC50 (non-mutated CFTR; apical pole, FIG. 2, read-out: EC50 activity, apical pole): 3.42 µM
- EC50 (non-mutated CFTR; basal pole, FIG. 3, read-out: EC50, basal pole): 4.87 µM
- short circuit current differential after addition of tritoqualine (non-mutated CFTR; non-mutated epithelial cells, apical side, increases from 16): more than 20 μA/cm^2
- short circuit current differential after addition of tritoqualine (non-mutated CFTR; non-mutated lacrimal gland epithelial cells, printed 'apical side' (second experiment), increases from 6.5): more than 7.5 μA/cm^2
- affinity (percent inhibition) on NK 1 receptor (NK 1 receptor): 97%
Compound: CCOc1c(N)c2c(c(OCC)c1OCC)C(C1c3c(cc4c(c3OC)OCO4)CCN1C)OC2=O (stereo not drawn) [tritoqualine, AMINO-7 TRIETHOXY-4,5,6 OXO-1 DIHYDRO-1,3 ISOBENZOFURANNYL-3)-1METHOXY-8METHYL-2METHYLENEDIOXY-6,7TETRAHYDRO-,2,3,4ISOQUINOLINE]
- degranulation after substance P in presence of tritoqualine (basophils; tritoqualine 10 pmoles (FIG. 10: 10 μM), then substance P, after 30 minutes, as with the negative control): around 7%
- inhibitory action on histidine decarboxylase (histidine decarboxylase): very weak
- solubility in benzene and acetone ([1]; benzene and acetone): sparingly soluble
- solubility in water ([1]; water): Insoluble

Compound: substance P: NK 1 agonist (supplier Sigma-Aldrich) (RPKPQQFFGLM-NH2; UniProt P20366 58-68, looked up)
- CD63 present on the basophil (degranulation) (basophils; substance P at 10 μmoles, basophils of 2 patients): 70%

From patent US20230181562A1, “USE OF A MULTIFUNCTIONAL LIGAND FOR TREATING DRY EYES, MEIBOMIAN GLAND DYSFUNCTIONS AND LACRIMAL GLAND DYSFUNCTIONS” (H4 ORPHAN PHARMA, priority 2020, published 2023)
